Values of other authors, collected in US6495521B2, “Combination therapy method for treating chronic hepatitis B” (SciClone Pharmaceuticals, Inc., priority 1993, dated 2002).

Experiments:
[1] = system: hepatitis B virus; conditions: patients with chronic active hepatitis B who received the peptide
[2] = individuals suffering from chronic active hepatitis B

Ac-Ser-Asp-Ala-Ala-Val-Asp-Thr-Ser-Ser-Glu- Ile-Thr-Thr-Lys-Asp-Leu-Lys-Glu-Lys-Lys-Glu- Val-Val-Glu-Glu-Ala-Glu-Asn-OH (Ac-SDAAVDTSSEITTKDLKEKKEVVEEAEN-OH) [thymosin alpha-1, 28 amino acid peptide originally isolated from calf thymus thymosin fraction 5]
patients who cleared hepatitis B virus DNA from serum and persistently tested negative for serum HBV DNA after treatment was terminated [1]: 75%
lymphocyte counts [2]: increases in lymphocyte counts
production of gamma-interferon [2]: enhance production of gamma-interferon
